Data taken from PubChem BioAssay (NCI).
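1) Cells in 96-well plates. 2) Compound, 48 h, 5 concentrations. 3) Linear interpolation between surrounding doses. 4) Unreached endpoint = highest concentration. The concentration for full growth arrest is given as TGI.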

Tests used:
Test in all cases: growth of human tumour cells (NCI), 48 h
K-562 leukemia = test system: K-562 leukemia
SW-620 colon = test system: SW-620 colon
OVCAR-3 ovarian = test system: OVCAR-3 ovarian
SNB-75 CNS = test system: SNB-75 CNS
SF-268 CNS = test system: SF-268 CNS
SR leukemia = test system: SR leukemia
MOLT-4 leukemia = test system: MOLT-4 leukemia
M14 melanoma = test system: M14 melanoma
UACC-62 melanoma = test system: UACC-62 melanoma
A498 renal = test system: A498 renal
OVCAR-8 ovarian = test system: OVCAR-8 ovarian

Row | SMILES | TGI (K-562 leukemia) | TGI (SW-620 colon) | TGI (OVCAR-3 ovarian) | TGI (SNB-75 CNS) | TGI (SF-268 CNS) | TGI (SR leukemia) | TGI (MOLT-4 leukemia) | TGI (M14 melanoma) | TGI (UACC-62 melanoma) | TGI (A498 renal) | TGI (OVCAR-8 ovarian)
1 | C[C@]1(O)O[C@@H]2OCC[C@@H]2C2=C1C(=O)c1ccccc1C2=O | 59.5 µM | 39.8 µM | 22.3 µM | 74 µM | 26.3 µM | 45.5 µM | > 100 µM | 24.1 µM | 39.5 µM | 27.1 µM | 29.4 µM
2 | CC(C)(C)c1ccc(C(C)(C)C)c(N2C(=O)C3ON=C(c4ccc([N+](=O)[O-])cc4)C3C2=O)c1 (configuration not stated) | > 25 µM | > 25 µM | > 25 µM | 14.3 µM | > 25 µM | > 25 µM | > 25 µM | > 25 µM | > 25 µM | 23.2 µM | > 25 µM
3 | CC(=O)N1c2ccccc2C(C)C1c1[nH]c2ccccc2c1C (configuration not stated) | > 100 µM | > 100 µM | 46.1 µM | 50.1 µM | 62 µM | 51.8 µM | 77.3 µM | 42.5 µM | 48.9 µM | 53.8 µM | 57.3 µM
4 | N=c1c2c(=S)n(-c3ccccc3)c(=S)n(-c3ccccc3)c2nc(SCCN2CCOCC2)n1-c1ccccc1 | 4.18 µM | 3.96 µM | 3.3 µM | 4.54 µM | 4.41 µM | 2.79 µM | 3.75 µM | 3.8 µM | 3.29 µM | 8.96 µM | 4.51 µM
5 | Cc1ccc(S(=O)(=O)N2CCNCCN(S(=O)(=O)c3ccc(C)cc3)CCN(S(=O)(=O)c3ccc(C)cc3)CC2)cc1 | > 100 µM | > 100 µM | > 100 µM | > 100 µM | > 100 µM | > 100 µM | > 100 µM | > 100 µM | > 100 µM | > 100 µM | > 100 µM
6 | NC1CC(=O)c2sccc21 (configuration not stated) | > 100 µM | > 100 µM | > 100 µM | > 100 µM | > 100 µM | > 100 µM | > 100 µM | > 100 µM | > 100 µM | > 100 µM | > 100 µM
7 | c1ccc(C(CCN2CC3CCC(CC3)C2)c2ccccc2)cc1 | 47.7 µM | > 100 µM | 44.3 µM | 85.9 µM | 69.2 µM | 46.4 µM | 42.6 µM | 27.3 µM | 35.3 µM | 34.1 µM | 98.3 µM
8 | C=CCN(c1cc(OC)c2[nH]cc(C)c2c1[N+](=O)[O-])S(C)(=O)=O | > 100 µM | > 100 µM | > 100 µM | > 100 µM | > 100 µM | > 100 µM | > 100 µM | > 100 µM | > 100 µM | > 100 µM | > 100 µM
9 | c1ccc2c(c1)CC1COc3ccccc3C1O2 (configuration not stated) | > 100 µM | > 100 µM | > 100 µM | > 100 µM | > 100 µM | > 100 µM | > 100 µM | > 100 µM | > 100 µM | > 100 µM | > 100 µM
10 | Cc1nc2ccccc2n1Cc1nnc(N)o1 | > 100 µM | > 100 µM | > 100 µM | > 100 µM | > 100 µM | > 100 µM | > 100 µM | > 100 µM | > 100 µM | > 100 µM | > 100 µM
11 | Cc1cc2nc(N3C(=O)/C(=C/c4ccc(Cl)cc4)N=C3c3ccccc3)sc2cc1C | > 100 µM | > 100 µM | 50 µM | 63.9 µM | > 100 µM | > 100 µM | > 100 µM | > 100 µM | > 100 µM | 85.9 µM | > 100 µM
12 | COc1cc2c(cc1OC)-c1cc3cc(OC)c(OC)cc3c(=O)n1CC2 | > 100 µM | > 100 µM | > 100 µM | > 79.3 µM | > 100 µM | > 100 µM | > 100 µM | > 100 µM | 34.7 µM | 45.2 µM | > 100 µM
